Data on 3 molecules can be found in ChEMBL document CHEMBL1141020, “Anthranilimide-based glycogen phosphorylase inhibitors for the treatment of type 2 diabetes: 1. Identification of 1-amino-1-cycloalkyl carboxylic acid headgroups” (Bioorg Med Chem Lett, 2009).

Each structure is given as a SMILES string.

Series [1] in a line: Metabolic stability in rat liver microsomes assessed as half life. Type of series: ADME, Microsome. On the technique in general: Liver microsomes are vesicles of endoplasmic reticulum, rich in cytochrome P450 enzymes.
Series [2] in a line: AUC (0 to infinity) in Sprague-Dawley rat at 1 mg/kg, po. In kind it is ADME, organism-based. More on the design: time infinity, dose 1 mg/kg, route oral. Conditions: plasma.
Series [3] is described as follows: AUC (0 to infinity) in Beagle dog at 1 mg/kg, po. Type of series: ADME, organism-based, Canis lupus familiaris. Also noted: time infinity, dose 1 mg/kg, route oral. Conditions: plasma.
Series [4] in a line: Clearance in Sprague-Dawley rat at 10 mg/kg, po or 2.5 mg/kg, iv. Type of series: ADME, organism-based. Conditions: in vivo.
A short description of series [5]: Clearance in Beagle dog at 5 mg/kg, po or 1 mg/kg, iv. Conditions: in vivo. In kind it is ADME, organism-based, Canis lupus familiaris.
Series [6] can be described thus: Volume of distribution at steady state in Sprague-Dawley rat at 10 mg/kg, po or 2.5 mg/kg, iv. In kind it is ADME, organism-based. Conditions: in vivo, read-out: Vdss.
The nature of series [7]: Volume of distribution at steady state in Beagle dog at 5 mg/kg, po or 1 mg/kg, iv. In kind it is ADME, organism-based, Canis lupus familiaris. Conditions: in vivo, read-out: Vdss.
Series [8] can be described thus: Half life in Sprague-Dawley rat at 10 mg/kg, po. Also noted: dose 10 mg/kg, route oral. Conditions: in vivo. Type of series: ADME, organism-based.
Series [9] in a line: Half life in Beagle dog at 5 mg/kg, po. Conditions: in vivo. Also noted: dose 5 mg/kg, route oral. In kind it is ADME, organism-based, Canis lupus familiaris.
Series [10] is described as follows: Oral bioavailability in Sprague-Dawley rat at 10 mg/kg. In kind it is ADME, organism-based. Conditions: in vivo.
Series [11] in a line: Oral bioavailability in Beagle dog at 5 mg/kg. In kind it is ADME, organism-based, Canis lupus familiaris. Conditions: in vivo.

As usually defined, the half-life is the time needed for the level to fall by half in the phase considered. With `Cc1cc(C)c(NC(=O)Nc2cc3ccccc3cc2C(=O)N[C@H](C(=O)O)C2CCCCC2)c(C)c1`, in series [1], the half-life is under 0.25 h.

By AUC(0-inf) is commonly meant total exposure, with the tail of the curve extrapolated. Lower therefore signals less exposure. The bioavailability is dose-corrected exposure relative to a reference, in per cent. A low value points to little systemic uptake. For `Cc1cc(C)c(NC(=O)Nc2cc3ccccc3cc2C(=O)NC2(C(=O)O)CCCCCCC2)c(C)c1`, the AUC(0-inf) in series [2] stood at 4380 ng·h/mL; in series [3], 620 ng·h/mL. The figures for the clearance in series [4] and in series [5] were 1.1 mL/min/kg and 13 mL/min/kg, respectively. For the same molecule, the Vd in series [6] stood at 0.28 L/kg; in series [7] it was 0.5 L/kg. Moreover, the half-life in series [8] is 5.4 h; in [9] it was 4 h. Moreover, the bioavailability came out at 28% in series [10] and 45% in [11].

In turn, `Cc1cc(C)c(NC(=O)Nc2cc3ccccc3cc2C(=O)N[C@](C)(C(=O)O)C2CCCCC2)c(C)c1` gave an AUC(0-inf) in series [2] of 1720 ng·h/mL. The molecule further displayed a clearance in series [4] of 7.5 mL/min/kg. In addition, the Vd in [6] was found to be 0.3 L/kg. This molecule had a half-life in series [8] of 4.1 h. Also, the bioavailability in [10] came to 37%.
